Experimental data reported in patent US20250019705A1, “PHARMACEUTICAL COMPOSITION FOR PREVENTING OR TREATING TARGET CANCER INCLUDING BRCA-SPECIFIC siRNA AS ACTIVE INGREDIENT” (KOREA INSTITUTE OF SCIENCE AND TECHNOLOGY, priority 2023, published 2025).

Assays:
Type in all cases: cell-based, mouse
[1] = tested on: phospho-H2AX (γH2AX); assay: DNA damage analysis by flow cytometry after PARP inhibitor in BRCA silenced cells; conditions: for γH2AX increase compared with control group: 0.01 μM Talazoparib
Procedure: The ID8 cells were dispensed in a 6-well plate at 2×10^5 cells/dish and incubated for 48 hours with PBS, vSIRPα-siBRCA1, vSIRPα-siBRCA2, and vSIRPα-siBRCA1/2. Subsequently, the cells were trypsinized and dispensed in a 6-well plate at 2×10^5 cells/dish, and treated with Olaparib or Talazoparib at a predetermined concentration for 24 to 48 hours.
Subsequently, the cells were detached with Trypsin-EDTA, blocked for 30 minutes using a PBS solution containing 1% FBS, and then a phospho-H2AX antibody was incubated for 2 hours. Thereafter, after PBS washing, flow cytometry was performed using a FACS device to measure phospho-H2AX antibody staining
To evaluate the level of PARP inhibitor-mediated DNA damage in BRCA gene-silenced cells, the expression levels of phospho-H2AX (γH2AX), a DNA damage marker, were measured by flow cytometry.
ID8 cells were treated with vSIRPα-siBRCA1 and vSIRPα-siBRCA2 alone or in combination, respectively, and after 48 hours, each cell type was treated with a PARP inhibitor, Talazoparib, and incubated for 48 hours.

[2] = tested on: ID8 cells; assay: PARP inhibitor IC50 analysis through MTS assay in ID8 cells incubated with vSIRPα-siBRCA
Procedure: (§1) FIG. 9A, FIG. 9B, FIG. 9C, and FIG. 9D illustrate a result of treating ID8 cells incubated with vSIRPα-siBRCA with a PARP inhibitor (Olaparib or Talazoparib) and performing IC50 analysis through MTS assay.
(§2) Knockdown and knockout of BRCA genes were highly correlated with the efficacy of synthetic lethal cell death induction of the PARP inhibitor. Therefore, whether the PARP inhibitor, after silencing the expression of BRCA1/2, could induce apoptosis of tumor cells was required confirmation. BRCA1 and/or BRCA2 may be effectively knocked down by treating ID8 cells with the vSIRPα-siBRCA conjugates. Therefore ID8 cells were treated with the vSIRPα-siBRCA conjugates for 48 hours and then treated with Talazoparib at various concentrations for 72 hours.

[3] = tested on: BRCA1-deficient ID8 cells; assay: PARP inhibitor IC50 analysis through MTS assay in BRCA1-deficient ID8 cells with BRCA2 knockdown; conditions: BRCA1-deficient ID8 cells with BRCA2 knocked down
Procedure: as §1, §2

[4] = BRCA1-knockdown (silenced) ID8 cells, vSIRPα-siBRCA 48 hours then PARP inhibitor 72 hours
[5] = BRCA1/2 silenced ID8 cells (vSIRPα-siBRCA1 and vSIRPα-BRCA2 together), 48 hours then PARP inhibitor 72 hours
[6] = BRCA2-knockdown (silenced) ID8 cells, vSIRPα-siBRCA 48 hours then PARP inhibitor 72 hours

Structure (SMILES) | γH2AX increase compared with control group ([1]; BRCA1/2 silenced ID8 cells (both conjugates 48 hours)) [fold] | γH2AX increase compared with control group ([1]; BRCA1 silenced ID8 cells (vSIRPα-siBRCA1 48 hours)) | γH2AX increase compared with control group ([1]; BRCA2 silenced ID8 cells (vSIRPα-siBRCA2 48 hours)) [fold] | expression levels of γH2AX ([1]; ID8-sgBRCA1/2 cells, Talazoparib 48 hours) | fold reduction of IC50 of PARP inhibitor vs BRCA normal-expressing (control) ID8 cells [2, 4] | fold reduction of IC50 of PARP inhibitor vs BRCA normal-expressing (control) ID8 cells [2, 5] | fold reduction of IC50 of PARP inhibitor vs BRCA normal-expressing (control) ID8 cells [2, 6] | fold reduction of IC50 of PARP inhibitor by BRCA2 knockdown [3]
Cn1ncnc1[C@H]1c2n[nH]c(=O)c3cc(F)cc(c23)N[C@@H]1c1ccc(F)cc1 [Talazoparib] | ~3.06 | about 1.32 fold | ~2.16 | significantly increased | 3.23 fold | 28.11 fold | 4.34 fold | about 3.6 fold
O=C(c1cc(Cc2n[nH]c(=O)c3ccccc23)ccc1F)N1CCN(C(=O)C2CC2)CC1 [Olaparib] |  |  |  |  | about 3.76 fold | about 13.97 fold | about 2.77 fold | 
